In article PMC6273843, “Synthesis and Selective Cytotoxic Activities on Rhabdomyosarcoma and Noncancerous Cells of Some Heterocyclic Chalcones” (Molecules, 2016):
Like-named read-outs stand apart in the source and are kept apart here.

Experiments:
[1] = system: Human muscle rhabdomyosarcoma (RMS) cell line (ATCC CCL-136); assay: MTT cell proliferation (cytotoxicity) assay on RMS cells; type: cell-based; conditions: for IC50: MTT, 24 h incubation with sample
[2] = system: Pig Kidney Epithelial (LLC-PK1) cell line (ATCC CL-101); assay: MTT cytotoxicity assay on noncancerous LLC-PK1 cells; type: cell-based; conditions: LLC-PK1 cells
Protocol: (§1) Pig Kidney Epithelial (LLC-PK1) cell line (ATCC® CL-101™) was a generous gift of Prof. Jeong Hill Park, Research Institute of Pharmaceutical Science (College of Pharmacy, Seoul National University, Seoul 151-172, Korea).
(§2) RMS or LLC-PK1 cells were seeded and cultured in EMEM medium (Gibco, Waltham, MA, USA) supplemented with 10% fetal calf serum (FCS) (Gibco), 2 mM L-glutamine, 100 IU/mL penicillin and 100 µg/mL streptomycin (Sigma-Aldrich, St. Louis, MO, USA) in a humidified atmosphere of 5% CO2 at 37 °C.
(§3) The samples were dissolved in dimethyl sulfoxide (DMSO) at 10 mM and then diluted with culture medium to get three concentrations of 100; 50; 10 µM or 25; 12.5; 2.5 µM for cell proliferation assays. […] DMSO at different concentrations or was used as a blank control. Paclitaxel (Anzatax®, Mayne Pharma, Australia) was used as the reference compound at the concentration of 1, 5 and 10 µM (directly dissolved in culture medium).
(§4) The cells were cells were seeded in 96-well plates at 4.2 × 10^4 cell/cm^2. After 24 h of incubation at 37 °C, 5% CO2, 100 μL of chalcone samples at tested concentrations, reference compound, and blank control (DMSO) was added and incubated for 24 hours at 37 °C, 5% CO2.
(§5) Cell viability was evaluated as mitochondrial succinate dehydrogenase (SDH) activity, a marker of viable cells, using MTT test as described by Denizot and Lang. Briefly, SDH activity was detected after 3 hours incubation in culture medium without FCS containing 0.05 mg/mL MTT (3-4,5-dimethyl-thiazol-2-yl-2,5 diphenyl-tetrazolium bromide, Sigma-Aldrich), which is converted into formazan dissolved in acidified isopropanol (Merck, Darmstadt, Germany) by agitation for 10 min at room temperature. The produced purple solution was spectrophotometrically measured at 570 nm on Multiskan™ FC microplate Photometer (Thermo Scientific, Waltham, MA, USA).
(§6) Each assay was done in triplicate and the standard deviation of absorbance was less than 10% of the mean. The results were expressed as Mean + SD of six cultures of one representative experiment and statistically analyzed by Mann-Whitney test with SPSS 22.0 for Windows software. Threshold of significance was set at p < 0.05.
(§7) The IC50 values were calculated based on the linear regression between the concentrations of testing compound and the inhibition percentages of cells. The chalcone compounds with significant potential against RMS cells (IC50 < 20 μM) were then tested for their toxicity on LLC-PK1 cells.

[3] = as above; type: cell-based, Pig; conditions: pig, LLC-PK1 pig kidney epithelial cells, read-out: % Cell Viability on Noncancer LLC-PK1 cells
Protocol: as §1, §2, §3, §4, §5, §6, §7

[4] = MTT cytotoxicity assay on noncancerous LLC-PK1 cells; type: cell-based; conditions: pig, LLC-PK1 pig kidney epithelial cells, read-out: % Cell Viability on Noncancer LLC-PK1 cells

Row | Compound | IC50 ([1]; Homo sapiens, 24 h) [µM] | IC50 [1] [µM] | melting point [°C] | other results
1 | COc1cc(/C=C/C(=O)c2ccco2)cc(OC)c1OC [Compound 14] | 29.1 ± 1.82 |  |  | inhibition at 25 µM ([1]; Homo sapiens, 25 μM): 42.9%; inhibition at 50 µM ([1]; Homo sapiens, 50 μM): 26.5%; inhibition at 100 µM ([1]; Homo sapiens, 100 μM): 15.1%
2 | COc1cc(/C=C/C(=O)c2ccccn2)cc(OC)c1OC [Compound 16] | < 20 | 19.6 ± 1.04 |  | toxicity on the noncancerous LLC-PK1 cell line (in words) [2]: almost complete absence of toxicity; viability at 24 h, 10 µM ([3]; 10 μM): 99.1 ± 3.1%; viability at 24 h, 50 µM [3]: 102 ± 12.1%; viability at 24 h, 100 µM [3]: 104 ± 6.5%
3 | O=C(/C=C/c1ccc(Cl)cc1)c1cccs1 [Compound 10] | 49.6 ± 3.2 |  |  | 
4 | COc1cc(/C=C/C(=O)c2cccs2)cc(OC)c1OC [Compound 13] | 26.6 ± 1.42 |  |  | 
5 | O=C(/C=C/c1ccccc1O)c1cccs1 [Compound 11] | 48.8 ± 2.42 |  |  | 
6 | CN(C)c1ccc(/C=C/C(=O)c2ccco2)cc1 [Compound 15] | 77.3 ± 4.69 |  |  | 
7 | COc1ccc(C(=O)/C=C/c2ccccn2)c(O)c1 [Compound 19, (E)-3-(Pyridin-2-yl)-1-(2-hydroxy-4-methoxyphenyl)prop-2-en-1-one] | 26.6 ± 1.72 |  | 130 to 131 | 
8 | (E)-3-(Pyridin-2-yl)-1-(2-hydroxyphenyl)prop-2-en-1-one [Compound 17] |  | 92.9 ± 6.14 |  | 
9 | O=C(/C=C/c1ccccc1Cl)c1ccc2c(c1)Nc1ccccc1S2 [Compound 7, (E)-3-(2-Chlorophenyl)-1-(10H-phenothiazin-2-yl)prop-2-en-1-one] | < 20 | 18 ± 1.63 | 202 to 203 | toxicity on the noncancerous LLC-PK1 cell line (in words) [2]: almost complete absence of toxicity; viability at 24 h, 10 µM ([3]; 10 μM): 100 ± 6.5%; viability at 24 h, 50 µM [3]: 109 ± 10.9%; viability at 24 h, 100 µM [3]: 94.8 ± 7.6%
10 | CC(=O)O[C@H]1C(=O)[C@@]2(C)[C@H]([C@H](OC(=O)c3ccccc3)[C@]3(O)C[C@H](OC(=O)[C@H](O)[C@@H](NC(=O)c4ccccc4)c4ccccc4)C(C)=C1C3(C)C)[C@]1(OC(C)=O)CO[C@@H]1C[C@@H]2O [Paclitaxel, reference compound] | 10.8 ± 0.47 |  |  | viability at 24 h, 10 µM ([3]; 10 μM (paclitaxel reference)): 108 ± 8.2%; viability at 24 h, 2 µM ([4]; 2 μM (paclitaxel reference)): 103 ± 6%; viability at 24 h, 20 µM ([4]; 20 μM (paclitaxel reference)): 75 ± 3.6%
11 | (E)-3-(Pyridin-3-yl)-1-(2-hydroxyphenyl)prop-2-en-1-one [Compound 18] |  | 91.1 ± 2.45 |  | 
12 | COc1ccc(/C=C/C(=O)c2ccc3c(c2)Nc2ccccc2S3)c(OC)c1 [Compound 8, (E)-3-(2,4-Dimethoxyphenyl)-1-(10H-phenothiazin-2-yl)prop-2-en-1-one] | < 20 | 19.7 ± 1.63 | 178 to 179 | toxicity on the noncancerous LLC-PK1 cell line (in words) [2]: almost complete absence of toxicity; viability at 24 h, 10 µM ([3]; 10 μM): 97.3 ± 10.2%; viability at 24 h, 50 µM [3]: 103 ± 6.4%; viability at 24 h, 100 µM [3]: 105 ± 5.4%
13 | O=C(/C=C/c1cccc(Br)c1)c1ccc2c(c1)Nc1ccccc1S2 [Compound 3, (E)-3-(3-Bromophenyl)-1-(10H-phenothiazin-2-yl)prop-2-en-1-one] |  |  | 230 to 232 | 
14 | CN(C)c1ccc(/C=C/C(=O)c2ccc3c(c2)Nc2ccccc2S3)cc1 [Compound 1, (E)-3-(4-(N,N-Dimethylamino)phenyl)-1-(10H-phenothiazin-2-yl)prop-2-en-1-one] |  |  | 232 to 233 | 
15 | COc1ccc(C(=O)/C=C/c2cccnc2)c(O)c1 [Compound 20, (E)-3-(Pyridin-3-yl)-1-(2-hydroxy-4-methoxyphenyl)prop-2-en-1-one] | 20.8 ± 1.33 |  | 128 to 129 | 
16 | O=C(/C=C/c1cccs1)c1ccc2c(c1)Nc1ccccc1S2 [Compound 9, (E)-3-(Thiophen-2-yl)-1-(10H-phenothiazin-2-yl)prop-2-en-1-one] | < 20 | 12.5 ± 1.74 | 229 to 230 | toxicity on the noncancerous LLC-PK1 cell line (in words) [2]: almost complete absence of toxicity; viability at 24 h, 10 µM ([3]; 10 μM): 98.8 ± 10.6%; viability at 24 h, 50 µM [3]: 98.2 ± 7.3%; viability at 24 h, 100 µM [3]: 97.1 ± 5%
17 | O=C(/C=C/c1ccc(OCc2ccccc2)cc1)c1ccc2c(c1)Nc1ccccc1S2 [Compound 2, (E)-3-(4-Benzyloxyphenyl)-1-(10H-phenothiazin-2-yl)prop-2-en-1-one] |  |  | 215 to 216 | 
